Patent US10317395B1, “Ex vivo engineered immune organoids for controlled germinal center reactions” (Cornell University, priority 2015, dated 2019)
Entries after “also recorded” stand apart in the source; their conditions may differ.

System: CD19+ B cells
Assay: RGD blocking of B cells with Cilengitide
Format: cell-based, C57BL6 mice
Conditions: 10 or 50 μM Cilengitide, 2 days, 3D organoids; αvβ3 and αvβ5 integrin binding to RGD
Protocol: Immune organoids were incubated in rinsed and incubated in FACS buffer containing fluorescence-conjugated antibodies and/or live cell stains for 12 hours at cell culture conditions. The samples underwent three rinsing rounds with each one involving aspiration of old medium and incubation in fresh FACS buffer for 1 hour. Each organoid was covered with 1×PBS during imaging with Zeiss 710 confocal microscope (Zeiss). In all flow cytometry experiments we started with same number of naïve B cells, i.e. 20,000 B cells. At each time point, samples were degraded using collagenase and the entire cell suspension (regardless of final cell numbers) was re-suspended in equal volume for all samples and equally divided into 3 separate staining groups for flow cytometry analysis (to stain for CD19, GL7, Fas, IgM, IgG1, and IgE). The entire volume was analyzed for total number of cells. Extracted cells were stained by incubation in FACS buffer containing various combinations of antibodies with 1:1000 dilution for 45 minutes in the dark at 4° C. The antibodies consisted of: FITC-, APC, or PE-Cy7-conjugated anti-mouse CD19, GL7, Fas, CD40L, IgG, and IgM (eBioscience). FACS buffer was prepared using 1×PBS++ with 10% FBS. The cell suspension was rinsed twice using the same buffer prior to low cytometer using BD Accuri™ C6 flow cytometer. Data analysis was performed using FlowJo (Tree Star). […]

SMILES: CC(C)[C@H]1C(=O)N[C@@H](CCCN=C(N)N)C(=O)NCC(=O)N[C@@H](CC(=O)O)C(=O)N[C@H](Cc2ccccc2)C(=O)N1C [Cilengitide]
- change in CD19+ B cells when RGD signaling is blocked: partial reduction; also recorded: partial but significant decrease
